Broadly, the IC50 is the midpoint of a concentration-inhibition curve.

We go through twelve compounds from patent US11059795B2, “Androgen receptor modulators and methods for their use” (ESSA Pharma, Inc., priority 2018, dated 2021).

One series addresses T1, androgen receptor (AR) (Homo sapiens, UniProt P10275, T878A).
T1 construct: LNCaP cells were transiently transfected with the PSA (6.1 kb)-luciferase reporter for 24 h; endogenous in cells; host or cells: LNCaP
T1 sequence (P10275 1-920 T878A): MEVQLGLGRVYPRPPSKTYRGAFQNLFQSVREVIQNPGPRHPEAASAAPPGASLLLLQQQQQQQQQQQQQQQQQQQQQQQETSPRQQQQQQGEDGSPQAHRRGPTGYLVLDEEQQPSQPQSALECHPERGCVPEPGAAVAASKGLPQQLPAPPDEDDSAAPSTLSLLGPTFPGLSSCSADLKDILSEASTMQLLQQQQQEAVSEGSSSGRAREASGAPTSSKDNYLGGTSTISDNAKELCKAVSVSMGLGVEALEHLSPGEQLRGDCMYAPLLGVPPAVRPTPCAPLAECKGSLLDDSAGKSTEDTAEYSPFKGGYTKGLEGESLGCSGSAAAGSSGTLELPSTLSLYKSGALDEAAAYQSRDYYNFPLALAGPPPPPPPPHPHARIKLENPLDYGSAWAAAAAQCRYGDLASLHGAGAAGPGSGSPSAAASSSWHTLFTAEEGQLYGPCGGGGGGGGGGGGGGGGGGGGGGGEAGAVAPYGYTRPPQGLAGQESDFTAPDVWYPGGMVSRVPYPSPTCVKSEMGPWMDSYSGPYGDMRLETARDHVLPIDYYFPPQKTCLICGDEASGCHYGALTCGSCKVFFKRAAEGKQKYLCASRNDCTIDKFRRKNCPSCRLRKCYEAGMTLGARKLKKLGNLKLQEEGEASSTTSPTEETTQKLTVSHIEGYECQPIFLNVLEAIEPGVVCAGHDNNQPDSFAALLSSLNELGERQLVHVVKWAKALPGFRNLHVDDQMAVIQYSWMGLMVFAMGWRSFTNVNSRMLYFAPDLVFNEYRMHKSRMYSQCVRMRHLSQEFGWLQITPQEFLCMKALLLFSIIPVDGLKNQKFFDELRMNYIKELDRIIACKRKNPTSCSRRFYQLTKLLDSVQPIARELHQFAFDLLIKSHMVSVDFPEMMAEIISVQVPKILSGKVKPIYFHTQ
Put plainly: Androgen-induced PSA (6.1 kb)-luciferase reporter assay in LNCaP cells. It is filed as cell-based. As to conditions: LNCaP cells transfected with PSA (6.1 kb)-luciferase reporter, R1881 1 nM, 24 h. In a few lines:
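LNCaP cells carrying a PSA (6.1 kb) promoter-luciferase reporter with AREs; androgen-induced firefly luciferase read from lysates for 10 s. RLU normalized to protein content; IC50 calculated from the normalized data.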

A short description of series [1]: Microsomal stability assay, human liver microsomes. It is filed as in vitro ADME. As to conditions: for microsomal CLint at 1 μM: pH 7.4, 1 μM compound, 0.5 mg/mL protein, 37° C., read-out: HLM +/− NADPH: Clint (μL/min/mg protein); for half-life at 1 μM: pH 7.4, read-out: Liver microsome T½ (min) Human. The procedure, abridged:
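Compound at 1 μM was incubated at 37° C with 0.5 mg/mL liver microsomes and 1 mM NADPH and/or 1 mM UDPGA (with alamethicin) in 100 mM potassium phosphate pH 7.4, 3 mM MgCl2. Samples were taken at 0, 15, 30 and 60 min and measured by LC/MS/MS. t½ came from compound loss relative to 0 min, and Clint was scaled with 45 mg microsomal protein/g liver.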
A general note: Liver microsomes are vesicles of endoplasmic reticulum, rich in cytochrome P450 enzymes.

The nature of series [2]: Microsomal stability assay, rat liver microsomes. It is filed as in vitro ADME. The settings on record: pH 7.4, read-out: Liver microsome T½ (min) Rat. As to the method: Microsomal stability assay is a widely used in vitro model to characterize the metabolic conversion by phase I enzymes, such as cytochrome P450 (CYP) enzymes. Since metabolism is known to be highly variable in different species, microsomal stability assay is commonly run in multiple species. Metabolic stability of testing compound can be evaluated using human, rat, mouse, or other animal liver or intestine microsomes to predict intrinsic clearance.
The assay was carried out in 96-well microtiter plates at 37° C. Reaction mixtures (25 μL) contained a final concentration of 1 μM test compound, 0.5 mg/mL liver microsomes protein, and 1 mM NADPH and/or 1 mM UDPGA (with alamethicin) in 100 mM potassium phosphate, pH 7.4 buffer with 3 mM MgCl2. The incubation was done with N=1, but duplicate incubation at each time point can be prepared if necessary. At each of the time points (for example, 0, 15, 30, and 60 minutes), 150 μL of quench solution (100% acetonitrile with 0.1% formic acid) with internal standard was transferred to each well. Besides the zero minute controls, mixtures containing the same components except the NADPH can also be prepared as the negative control. Verapamil was included as a positive control to verify assay performance. Plates were sealed, vortexed, and centrifuged at 4° C. for 15 minutes at 4000 rpm. The supernatant is transferred to fresh plates for LC/MS/MS analysis.
Summarized conditions: [Compound]=[…], [LM]=0.5 mg/mL, [NADPH]=1 mM and/or [UDPGA]=1 mM, Buffer=100 mM Potassium Phosphate, pH 7.4 with 3 mM MgCl2, Time=0, 15, 30, and 60 min, and Temperature=37° C.
All samples were analyzed on LC/MS/MS using an AB Sciex API 4000 instrument, coupled to a Shimadzu LC-20AD LC Pump system. Analytical samples were separated using a Waters Atlantis T3 dC18 reverse phase HPLC column (20 mm×2.1 mm) at a flow rate of 0.5 mL/min. The mobile phase consisted of 0.1% formic acid in water (solvent A) and 0.1% formic acid in 100% acetonitrile (solvent B).
The extent of metabolism is calculated as the disappearance of the test compound, compared to the 0-min time incubation. Initial rates are calculated for the compound concentration and used to determine half-life (t½) values and subsequently, the intrinsic clearance (Clint). Clint=(0.693)(1/t½ (min))(g of liver/kg of body weight)(mL incubation/mg of microsomal protein)(45 mg of microsomal protein/g of liver weight)

The structures appear in SMILES notation. Like-named read-outs stand apart in the source and are kept apart here.

Take `C[C@H](Oc1ccc(C(C)(C)c2cc(Cl)c(OCCCl)c(C#N)c2)cc1)c1ccnc(NS(C)(=O)=O)n1` (single isomer, unassigned) [Compound A170]: the IC50 on androgen receptor (AR) (read-out: PSA-Luc IC50 Range) was 500 to 2000 nM. Moreover, the microsomal CLint at 1 μM in series [1] is below 12 µL/min/mg.
Regarding `CC(C)(c1ccc(OCc2ocnc2S(C)(=O)=O)cc1)c1cc(Cl)c(OCCCl)c(Cl)c1` [Compound A13, 5-((4-(2-(3,5-dichloro-4-(2-chloroethoxy)phenyl)propan-2-yl)phenoxy)methyl)-4-(methylsulfonyl)oxazole], the IC50 is 592 nM at androgen receptor (AR) (read-out: PSA-Luc IC50) and 500 to 2000 nM at androgen receptor (AR) (read-out: PSA-Luc IC50 Range). The half-life at 1 μM is 64 min in series [2] and above 120 min in series [1]. In series [1], the microsomal CLint at 1 μM is below 12 µL/min/mg.
As to `CC(C)(c1ccc(OCc2ocnc2S(C)(=O)=O)cc1)c1cc(Cl)c(OCCCl)c(C#N)c1` [Compound A28, 3-chloro-2-(2-chloroethoxy)-5-(2-(4-((4-(methylsulfonyl)oxazol-5-yl)methoxy)phenyl)propan-2-yl)benzonitrile], the values for the IC50 at androgen receptor (AR) (read-out: PSA-Luc IC50) and at androgen receptor (AR) (read-out: PSA-Luc IC50 Range) were 400 nM and below 500 nM, respectively. In addition, the half-life at 1 μM was 23 min in series [2] and above 120 min in series [1]. Further, the microsomal CLint at 1 μM in series [1] is below 12 µL/min/mg.
On to `CC(C)(c1ccc(OCc2coc(NS(C)(=O)=O)n2)cc1)c1cc(Cl)c(OCCCl)c(Cl)c1` [Compound A38, N-(4-((4-(2-(3,5-dichloro-4-(2-chloroethoxy)phenyl)propan-2-yl)phenoxy)methyl)oxazol-2-yl)methanesulfonamide], for which the values for the IC50 on androgen receptor (AR) (read-out: PSA-Luc IC50) and at androgen receptor (AR) (read-out: PSA-Luc IC50 Range) were 631 nM and 500 to 2000 nM, respectively. The values for the half-life at 1 μM in series [2] and in series [1] were 12 min and above 120 min, respectively. In series [1], the microsomal CLint at 1 μM was below 12 µL/min/mg.
`CC(C)(c1ccc(OCc2ccnc(NS(C)(=O)=O)n2)cc1)c1cc(Cl)c(OCCCl)c(Cl)c1` [Compound A74, N-(4-((4-(2-(3,5-dichloro-4-(2-chloroethoxy)phenyl)propan-2-yl)phenoxy)methyl)pyrimidin-2-yl)methanesulfonamide]: the IC50 is 658 nM at androgen receptor (AR) (read-out: PSA-Luc IC50) and 500 to 2000 nM on androgen receptor (AR) (read-out: PSA-Luc IC50 Range). Further, the half-life at 1 μM in series [2] and in series [1] was above 120 min in each case. Besides, the microsomal CLint at 1 μM in series [1] is below 12 µL/min/mg.
With `CC(C)(c1ccc(OCc2ncc(S(C)(=O)=O)s2)cc1)c1cc(Cl)c(OCCCl)c(C#N)c1` [Compound A93, 3-chloro-2-(2-chloroethoxy)-5-(2-(4-((5-(methylsulfonyl)thiazol-2-yl)methoxy)phenyl)propan-2-yl)benzonitrile], the IC50 at androgen receptor (AR) (read-out: PSA-Luc IC50) was 205 nM; at androgen receptor (AR) (read-out: PSA-Luc IC50 Range), below 500 nM. Further, the figures for the half-life at 1 μM in series [2] and in series [1] were 83 min and above 120 min, respectively. For the same compound, in series [1], the microsomal CLint at 1 μM was below 12 µL/min/mg.
Consider `CC(C)(c1ccc(OCc2ccnc(NS(C)(=O)=O)n2)cc1)c1cc(Cl)c(OCCCl)c(C#N)c1` [Compound A109, N-(4-((4-(2-(3-chloro-4-(2-chloroethoxy)-5-cyanophenyl)propan-2-yl)phenoxy)methyl)pyrimidin-2-yl)methanesulfonamide], for which the IC50 was 535 nM at androgen receptor (AR) (read-out: PSA-Luc IC50) and 500 to 2000 nM on androgen receptor (AR) (read-out: PSA-Luc IC50 Range). Also, the half-life at 1 μM in series [2] and in series [1] was above 120 min throughout. The microsomal CLint at 1 μM in series [1] was below 12 µL/min/mg.
Take `Cc1cnc(NS(C)(=O)=O)nc1COc1ccc(C(C)(C)c2cc(Cl)c(OCCCl)c(C#N)c2)cc1` [Compound A122, N-(4-((4-(2-(3-Chloro-4-(2-chloroethoxy)-5-cyanophenyl)propan-2-yl)phenoxy)methyl)-5-methylpyrimidin-2-yl)methanesulfonamide]: at androgen receptor (AR) (read-out: PSA-Luc IC50 Range), the IC50 is below 500 nM. Moreover, the microsomal CLint at 1 μM in series [1] is below 12 µL/min/mg.
Taken in the same sequence, the figures for `CCS(=O)(=O)Nc1nc(COc2ccc(C(C)(C)c3cc(Cl)c(OCCCl)c(C#N)c3)cc2)co1` [Compound A126] were 500 to 2000 nM and below 12 µL/min/mg.
Regarding `CCS(=O)(=O)Nc1nccc(COc2ccc(C(C)(C)c3cc(Cl)c(OCCCl)c(C#N)c3)cc2)n1` [Compound A131], on androgen receptor (AR) (read-out: PSA-Luc IC50 Range), the IC50 was 500 to 2000 nM. In series [1], the microsomal CLint at 1 μM is below 12 µL/min/mg.
Consider `CC(C)(c1ccc(OCc2nc(S(C)(=O)=O)cs2)cc1)c1cc(Cl)c(OCCCl)c(C#N)c1` [Compound A136, 3-Chloro-2-(2-chloroethoxy)-5-(2-(4-((4-(methylsulfonyl)thiazol-2-yl)methoxy)phenyl)propan-2-yl)benzonitrile], for which the IC50 on androgen receptor (AR) (read-out: PSA-Luc IC50 Range) is 500 to 2000 nM. Moreover, the microsomal CLint at 1 μM in series [1] lay in the range of 12 to 48 µL/min/mg.
With `CC(C)(c1ccc(OC[C@H](O)CNS(C)(=O)=O)cc1)c1cc(Cl)c(OC[C@H](O)CCl)c(Cl)c1` [X, reference compound], the 50% inhibitory concentration (IC50) on androgen receptor (AR) (read-out: PSA-Luc IC50) amounted to 1050 nM. Further, the half-life at 1 μM in series [1] was above 120 min.
